Test results as given in US5130302A, “Boronated nucleoside, nucleotide and oligonucleotide compounds, compositions and methods for using same” (Boron Bilogicals, Inc., priority 1989, dated 1992).
Converted amounts (≈) assume the structure as drawn. Read-outs that look alike come from different tables or passages of the source.

How the values were obtained:
inflammatory response = assay: Anti-inflammatory activity, carrageenan-injected hind foot; assay type: in vivo, CF1 male mice; conditions: mice; for Antiinflammatory Activity, % inhibition: 8 mg/kg/day, intraperitoneal, 3 hours and 30 minutes prior to carrageenan
Description: CF1 male mice (~25 g) were administered test drugs at 5-40 mg/kg in 0.05% Tween 80--H2 O intraperitoneally 3 hours prior to and 30 minutes prior to the injection of 0.2 ml of 1% carrageenan in 0.9% saline into the plantar surface of the right hind foot. Saline was injected into the left hind foot, which serves as a base line. After 3 hours, both feet were excised at the tibiotarsal (ankle) joint according to standard procedures. See C. Winter et al., Proc. Soc. Expt. Biol Med. 544, 111 (1962); A. Roszkawski et al., J. Pharm. Exp. Ther. 179, 114 (1971). Control mice afforded a 78±3 mg increase in paw weight.

[1] = tested on: L1210 lymphoid leukemia cells; assay: Cytotoxicity, L1210 lymphoid leukemia cells; assay type: cell-based; conditions: Mus musculus, read-out: ED50 (cytotoxicity), L1210
Description: (§1) More specifically, the cytotoxic activity of the boron adducts of the present invention was tested on the following neoplastic cell lines:
1. L1210 lymphoid leukemia cells, R. Geran et al., Cancer Chemotherapy Reports 3, 7 (1972).(grown in RPMI+15% FBS+antibiotics).
(§2) The cytotoxic screens were conducted according to NIH protocols, see E. Huang et al., J. Pharm. Sci. 61, 108 (1972), with 10^4 cells, growth medium, antibiotics and drugs from 0.5 to 100 μg/ml final concentration. For the L1210, Hela-S, amd Tmolt, (i.e. the suspended cells), the incubations were conducted in sterile test tubes in a final volume of 1 ml for 72 hr at 37° C. in a CO2 incubator. The cells on the third day were still in log growth phase. The number of cells/ml are determined using trypan blue exclusion and a hemocytometer. See, e.g., R. Geran, supra. For solid tumors there is plated out in wells 1×10^4 cells with 1 ml of medium+antibiotics and the other components of growth. When the controls have converged (≈95%) then the density of the cells is estimated and the ED50 values calculated.

[2] = tested on: SW480 human colorectal carcinoma; assay: Cytotoxicity, colon adenocarcinoma SW480 human colorectal carcinoma; assay type: cell-based
Description: as §1
3. Colon adenocarcinoma SW480 human colorectal carcinoma. A. Leibovitz et al., Cancer Res. 36, 4562 (1976) (grown in L15+10% FBS).
as §2

[3] = Stability in aqueous medium by HPLC; assay type: physicochemical; conditions: for remaining at 168 h: period of 168 h, read-out: stable in aqueous medium
Description: By HPLC, compounds 3a, 3b, and 3d in aqueous medium (0.01 M TEAAc) are >94% stable over a period of 168 h. […], however, is >50% decomposed during this period.

Hela-S = assay: Cytotoxicity, Hela-S cervical carcinoma suspended; assay type: cell-based; conditions: Homo sapiens, read-out: ED50 (cytotoxicity), Hela-S
Description: 7. Hela-S, ATCC-CCL 2.2, cervical carcinoma suspended, S. Schreiber and N. Ikemoto, supra; T. Puck et al., J. Exp. Med. 103. 273 (1956) (grown in Joklik+5% FBS, Ham's F12 +5% FBS).
as §2

[4] = tested on: Serum triglyceride levels; assay: Antihyperlipidemic activity, serum triglyceride; assay type: in vivo, male CF1 mice; conditions: mice; for Hypolipidemic: Triglyceride Inhibition, % inhibition: 8 mg/kg/day, intraperitoneal, bled on day 16
Description: (§3) Compounds to be tested were suspended in 1% aqueous carboxymethylcellulose,homogenized and administered to male CF1 mice (25 g) intraperitoneally for 16d. On days 9 and 16, blood was obtained by tail vein bleeding, and the serum was separated by centrifugation for three minutes. The serum cholesterol levels were determined by a modification of the Liebermann--Burchard reaction in accordance with known techniques. See A. Ness, et al., Clin. Chim. Acta 10, 229 (1964). Serum triglyceride levels were determined with a commercial kit, the Fisher Hycel Triglyceride Test Kit, for a different group of animals bled on day 16.

[5] = tested on: Lung bronchogenic MB-9812; assay: Cytotoxicity, lung bronchogenic MB-9812; assay type: cell-based; conditions: read-out: ED50 (cytotoxicity), Lung Bronchogenic
Description: 4. Lung bronchogenic MB-9812, S. Aronson et al., Expt. Cell Res. 61, 1 (1970) (grown in EMEM+10% FBS+NEAA).
as §2

P388 = assay: Cytotoxicity, P388; assay type: cell-based
Description: as §2

[6] = tested on: Human glioma cell EH 118 MG; assay: Cytotoxicity, human glioma cell EH 118 MG; assay type: cell-based; conditions: read-out: ED50 (cytotoxicity), Glioma
Description: 9. Human glioma cell EH 118 MG transformed stain of Rous sarcoma virus, J. Lutton et al., J. Biol. Chem. 254, 11181 (1979) (grown in DMEM-H+10% FCS).
as §2

serum cholesterol levels = assay: Antihyperlipidemic activity, serum cholesterol; assay type: in vivo, male CF1 mice; conditions: mice; for Hypolipidemic: Cholesterol Inhibition, % inhibition: 8 mg/kg/day, intraperitoneal for 16d
Description: as §3

[7] = tested on: KB epidermoid oral nesopharnyx; assay: Cytotoxicity, KB epidermoid oral nasopharynx; assay type: cell-based; conditions: Homo sapiens, read-out: ED50 (cytotoxicity), KB
Description: 6. KB epidermoid oral nesopharnyx. R. Geran, supra: H. Eagle, Proc. Soc. Expt.
Biol. 89, 362 (1955)(grown in EMEM +5% calf serum).
as §2

Human Osteosarcoma TE418 = assay: Cytotoxicity, human osteosarcoma TE418; assay type: cell-based; conditions: Osteosarcoma TE418, read-out: ED50 (cytotoxicity), Osteo sarcoma
Description: 5. Human Osteosarcoma TE418. H. Smith et al., Int. J. Cancer 17, 219 (1976) (grown in DMEM+10% FBS).
as §2

[8] = tested on: Tmolt acute lymphoblastic T cell leukemia; assay: Cytotoxicity, Tmolt acute lymphoblastic T cell leukemia; assay type: cell-based; conditions: T-cell, read-out: ED50 (cytotoxicity), Tmolt
Description: as §1
2. Tmolt^S acute lymphoblastic T cell leukemia, S. Schreiber and N. Ikemoto, Tett. Lett 29, 3211 (1988) (grown in RPMI - 1640+10% FBS).
as §2

[9] = Homo sapiens, SW480; read-out: ED50 (cytotoxicity), Adeno Carcinoma SW480
[10] = Mus musculus, P388; read-out: ED50 (cytotoxicity), P388

SMILES | IC50 ([1]; L1210, 72 hr at 37° C.) [µg/mL] | IC50 [2, 9] [µg/mL] | remaining at 168 h ([3]; 0.01 M TEAAc, HPLC) [%] | IC50 (Hela-S; Hela-S, 72 hr at 37° C.) [µg/mL] | Hypolipidemic: Triglyceride Inhibition, % inhibition [4] [%] | IC50 ([5]; Lung bronchogenic MB-9812) [µg/mL] | IC50 (P388; [10]) [µg/mL] | IC50 ([6]; Glioma EH 118 MG) [µg/mL] | Antiinflammatory Activity, % inhibition (inflammatory response) [%] | Hypolipidemic: Cholesterol Inhibition, % inhibition (serum cholesterol levels) [%] | IC50 [7] [µg/mL] | IC50 ([8]; Tmolt, 72 hr at 37° C.) [µg/mL] | also measured
CCCCC1C(=O)N(c2ccccc2)N(c2ccccc2)C1=O [phenylbutazone, reference compound] |  |  |  |  |  |  |  |  |  |  |  |  | Antiinflammatory Activity, % inhibition (Standard) (inflammatory response; standard, column head 8 mg/kg/day): 47%
N#C[BH2-][n+]1cn([C@H]2C[C@H](O)[C@@H](CO)O2)c2nc[nH]c(=O)c21 [Compound 3b, 2'-Deoxyinosine-N^7-cyanoborane] | 4 (≈ 13.7 µM) | 3.86 (≈ 13.3 µM) | > 94 | 2.41 (≈ 8.28 µM) | 30 | 4.93 (≈ 16.9 µM) | 7.21 (≈ 24.8 µM) | 8.49 (≈ 29.2 µM) | 25 | 19 | 3.45 (≈ 11.9 µM) | 1.73 (≈ 5.94 µM) | degraded at 168 h ([3]; 0.01 M TEAAc, 168 h, HPLC, read-out: decomposed in aqueous medium): > 50%; IC50 (Human Osteosarcoma TE418): 7.28 µg/mL (≈ 25 µM)
CC(C)[Si](OC[C@H]1O[C@@H](n2c[n+]([BH2-]C#N)c3c(=O)[nH]cnc32)C[C@@H]1O[Si](C(C)C)(C(C)C)C(C)C)(C(C)C)C(C)C [Compound 2b, 3', 5-O-Bis(triisopropylislyl)-2'-deoxyinosine-N7-cyanoborane] |  |  |  |  |  |  |  |  |  |  | 5.29 (≈ 8.76 µM) |  | IC50 ([1]; L1210, 72 h): 4 µg/mL (≈ 6.63 µM); IC50 ([2]; Homo sapiens, SW480, read-out: ED50 (cytotoxicity), Adeno Carcinoma SW480): 2.57 µg/mL (≈ 4.26 µM); IC50 (Hela-S; HeLa, 72 h): 3.26 µg/mL (≈ 5.4 µM); IC50 [5]: 6.2 µg/mL (≈ 10.3 µM); IC50 (P388; Mus musculus, P388, read-out: ED50 (cytotoxicity), P388): 7.31 µg/mL (≈ 12.1 µM); IC50 [6]: 6.21 µg/mL (≈ 10.3 µM); IC50 ([8]; 72 h): 6.49 µg/mL (≈ 10.7 µM)
CCOC(=O)C(C)(C)Oc1ccc(Cl)cc1 [clofibrate, reference compound] |  |  |  |  |  |  |  |  |  |  |  |  | Hypolipidemic: Triglyceride Inhibition, % inhibition (Standard) ([4]; standard (clofibrate at 130 mg/kg/day)): 25%; Hypolipidemic: Cholesterol Inhibition, % inhibition (Standard) (serum cholesterol levels; 130 mg/kg/day): 13%
N#C[BH2-][n+]1cn([C@H]2C[C@H](O)[C@@H](CO)O2)c2nc(N)[nH]c(=O)c21 [Compound 3a, 2'-Deoxyguanosine-N7-cyanoborane] | 5.08 (≈ 16.6 µM) |  | > 94 |  | 37 |  | 5.87 (≈ 19.2 µM) |  | 22 | 44 |  |  | stability in aqueous medium ([3]; in words, aqueous medium): good stability
CC(C)[Si](OC[C@H]1O[C@@H](n2ccc(N)[n+]([BH2-]C#N)c2=O)C[C@@H]1O[Si](C(C)C)(C(C)C)C(C)C)(C(C)C)C(C)C [Compound 2d, 3', 5'-O-Bis(triisopropylsilyl)-2'-deoxycytidine-N3-cyanoborane] | 4.78 (≈ 8.26 µM) | 2.73 (≈ 4.72 µM) |  | 2.94 (≈ 5.08 µM) |  | 6.6 (≈ 11.4 µM) | 7.26 (≈ 12.5 µM) | 6.77 (≈ 11.7 µM) |  |  | 5.72 (≈ 9.88 µM) | 3.36 (≈ 5.81 µM) | 
